Laboratory results from patent US12678546B2, “Systems, methods, and apparatus for modeling and optimizing dialysis effects” (INNCELEREX, priority 2022, dated 2026).
Like-named read-outs stand apart in the source and are kept apart here.

How the values were obtained:
[1] = Ex-vivo simulated dialysis treatment (CRRT mimic) of bovine plasma containing creatinine; assay type: in vitro ADME; conditions: for Reduction in creatinine on the arterial side / Reduction in creatinine on the venous side / Total amount of creatinine in effluent, of total amount in the reservoir at time zero: at 60 minutes; for Change in creatinine concentration, venous vs. arterial side, mean over timepoints: the values are: percent change venous vs arterial; for C0 at 0 min: bovine, prior to starting ex-vivo dialysis, read-out: Starting creatinine concentration at time zero
Excerpt: FIG. 1 illustrates an exemplary system 100 and configuration for a simulated treatment on a drug or analyte of interest. The exemplary system 100 of FIG. 1 was designed and built to mimic Continuous Renal Replacement Therapy (CRRT). CRRT is a method of slower, continuous dialysis to allow solute and fluid homeostasis. CRRT […] intermittent hemodialysis and peritoneal dialysis. It is typically performed through pump-driven venovenous extracorporeal circuits and acts as renal support through blood purification to allow solute and fluid homeostasis. CRRT is often chosen for renal replacement in hemodynamically unstable patients, and it is often employed in the intensive care unit. With a slower rate of fluid removal, CRRT theoretically causes less hypotension than other dialysis techniques. Another advantage of CRRT for these patients is that they often require a large volume of fluid administration, including medications and parenteral nutrition, and CRRT can prevent an overloaded state.
The blood or plasma is introduced to the blood side 156 of the filter. Dialysate fluid that has no drug (nor analyte of interest) is pumped through the other side 157 of the filter. This process creates a movement of the analyte of interest from the blood side 156 of the filter to the dialysate side 157 and ultimately excretion into an effluent container 107 (simulating drug removal). The pumps 110, 111, 112, 113 are set at typical clinical levels (e.g., 300-500 mL/min) for pump speed and are optimized based on performance criteria (and by trial and error) for the specific treatment simulation.
In some embodiments, the system 100 is run for 1 hour, and during this time samples (500 μL each) are taken at the respective sample points 103, 104, 105, 106 at time 0, 10, 20, 30, 40 and 60 minutes after starting the pumps 110, 111, 112, 113. These samples are assayed for the analyte of interest. These are the numerical treatment simulation results that are used in silico (described below) to scale and to predict human dialysis situations (i.e., create a virtual patient) and also to extend the predictions to many other dialysis settings (e.g., different filter types, flow rates, type of fluids pumped in, etc.) that are used in different clinical conditions.
As shown in an exemplary algorithm and schematic of the invention in FIGS. 3A-3C, the treatment simulation and in-silico modeling, simulations, and extrapolation are used to determine the effects of dialysis on a drug or analyte of interest. In blocks A and B of FIG. 3A, bovine or human plasma or blood is spiked with a drug or an exogenous analyte existing in plasma or blood. In block C, pumps, tubing, flow rates, filters, temperature, pH, dialysis or replacement solutions and apparatus are configured to mimic a type of CRRT (Continuous Renal Replacement Therapy) or IHD (Intermittent Hemodialysis). In block D, the system is run for approximately 1-2 hours. In block E, multiple samples from different ports 103, 104, 105, 106 (arterial, venous, effluent, and blood/plasma reservoir) are taken during the treatment simulation and the sampling information is recorded. In block F, the samples for the drug/analyte collected are assayed. In block G, the amount of the drug that is removed by the treatment simulation is determined, and rate and ratio parameters for the drug removal from plasma or blood are calculated.
One analyte was creatinine used as control, and the other was drug X (a drug under development). The Cybernetic Dialysis™ system 200 measures how much of drug X and how much creatinine is removed by dialysis and (referring back to FIG. 1) includes water bath 101 with shaking tray with thermal control set at 37° C. […]

[2] = as above; assay type: in vitro ADME; conditions: HF1400 membrane; 5 min after start of ex-vivo dialysis
[3] = AN69 M150 membrane, 10 min after start of ex-vivo dialysis
[4] = AN69 M150 membrane, 20 min after start of ex-vivo dialysis
[5] = AN69 M150 membrane, 30 min after start of ex-vivo dialysis
[6] = AN69 M150 membrane, 40 min after start of ex-vivo dialysis
[7] = AN69 M150 membrane, 60 min after start of ex-vivo dialysis
[8] = HF1400 membrane, 10 min after start of ex-vivo dialysis
[9] = HF1400 membrane, 20 min after start of ex-vivo dialysis
[10] = HF1400 membrane, 30 min after start of ex-vivo dialysis
[11] = HF1400 membrane, 40 min after start of ex-vivo dialysis
[12] = HF1400 membrane, 60 min after start of ex-vivo dialysis

- Creatinine concentration, Arterial [1, 3]: 7.088 µg/mL
- Creatinine concentration, Venous [1, 3]: 5.545 µg/mL
- Creatinine concentration, Arterial [1, 4]: 6.53 µg/mL
- Creatinine concentration, Venous [1, 4]: 5.216 µg/mL
- Creatinine concentration, Arterial [1, 5]: 5.191 µg/mL
- Creatinine concentration, Venous [1, 5]: 4.353 µg/mL
- Creatinine concentration, Arterial [1, 6]: 4.145 µg/mL
- Creatinine concentration, Venous [1, 6]: 3.706 µg/mL
- Creatinine concentration, Arterial [1, 7]: 3.444 µg/mL
- Creatinine concentration, Venous [1, 7]: 2.909 µg/mL
- Reduction in creatinine on the arterial side ([1]; AN69 M150 membrane): 60%
- Creatinine concentration, Arterial ([1]; AN69 M150 membrane, time point 0 min, bovine plasma): 8.581 µg/mL
- Creatinine concentration, Arterial [1, 8]: 8.306 µg/mL
- Creatinine concentration, Venous [1, 8]: 6.355 µg/mL
- Creatinine concentration, Arterial [1, 9]: 6.174 µg/mL
- Creatinine concentration, Venous [1, 9]: 5.052 µg/mL
- Creatinine concentration, Arterial [1, 10]: 5.857 µg/mL
- Creatinine concentration, Venous [1, 10]: 4.214 µg/mL
- Creatinine concentration, Arterial [1, 11]: 5.261 µg/mL
- Creatinine concentration, Venous [1, 11]: 3.782 µg/mL
- Creatinine concentration, Arterial [1, 12]: 3.82 µg/mL
- Creatinine concentration, Venous [1, 12]: 3.18 µg/mL
- Change in creatinine concentration, venous vs. arterial side, mean over timepoints ([1]; HF1400 membrane, FIG. 7): -25.4%
- Reduction in creatinine on the arterial side ([1]; HF1400 membrane): 56%
- Reduction in creatinine on the venous side ([1]; HF1400 membrane): 63%
- Total amount of creatinine in effluent, of total amount in the reservoir at time zero ([1]; HF1400 membrane): 66.3%
- Creatinine concentration, Arterial ([1]; HF1400 membrane, time point 0 min, bovine plasma): 8.581 µg/mL
- Change in creatinine concentration, venous vs. arterial side, mean over timepoints ([1]; M150 AN69 membrane, FIG. 5): -16.8%
- Reduction in creatinine on the venous side ([1]; M150 AN69 membrane): 66%
- Total amount of creatinine in effluent, of total amount in the reservoir at time zero ([1]; M150 AN69 membrane): 68.0%
- Total amount of creatinine (at time zero) remaining in the membrane cartridge and associated tubing ([1]; both membrane types (M150 AN69 and HF1400)): about 5%
- C0 at 0 min ([1]; AN69 M150 membrane): 8370 ng/mL
- C0 at 0 min ([1]; HF1400 membrane): 8580 ng/mL
- Creatinine concentration, Arterial [2]: 8.675 µg/mL
- Creatinine concentration, Venous [2]: 5.41 µg/mL
Structure (SMILES): CN1CC(=O)NC1=N [creatinine]
